How the values were obtained:
[1] = test system: ARID1A mutated ovarian clear cell carcinoma; settings: mice with ARID1A mutated ovarian clear cell carcinoma; cited from earlier work
[2] = test system: A2780; test: qRT-PCR of interferon stimulated genes and cytokines; assay type: cell-based, human; settings: A2780, Day 7, 500 nM Aza then NextA, fold change relative to Mock
Experimental: (§1) Cells were cultured in T75 dishes to form a monolayer at 80% confluency. Combination cells were treated with 500 nM 5-azacytidine or PBS for 3 days. Cells were passaged on the fourth day and split into 2 flasks to be treated with Nexturastat or vehicle at the desired dose based on the cell line for the following 3 days. On the last day of HDACi treatment, one flask from each treatment group was stimulated with 250 ng/mL IFNγ (Peprotech, 300-02) for 4 hours. For isogeneic ID8 murine cell lines, cell were stimulated with 250 ng/mL […] (Peprotech, 315-05) for 4 hours. On the seventh day cell pellets were collected for qPCR analysis.
(§2) Total RNA was extracted using the TRIzol method (Life Technologies). RNA concentration was determined using the Thermo Scientific NanoDrop One machine and software (Thermo Scientific, 840274100PR2). One microgram total RNA was DNAse I (Thermo Scientific) treated and used to generate cDNA with the Applied Biosystems High-Capacity cDNA Reverse Transcriptase Kit (Applied Biosystems, 4368814). All RT-qPCRs were run on the Applied Biosystems Quantstudio3 Real-Time PCR System, 96-well plate reader (Applied Biosystems, A28137) and using TaqMan assay Gene Expression Array (Thermo Fisher Scientific, 4331182) in human for OASL, IFI44L, IFNb1, CXCL10, CCL2, CCL5, IFI27, CD247, DNMT1, DNMT3a, DNMT3b and in mouse (Thermo Fisher Scientific, 4331182) for OASL, IFI44L, IFNb1, CXCL10, CCL2, CCL5, IFI27, and CD247. TBP was used as a housekeeping gene for both human and murine cell lines. The ΔΔCt method was used to calculate relative expression levels. Reverse transcriptase negative cDNA synthesis reaction was performed on at least one sample per 96-well plate along with a water control to ensure accurate results.

[3] = test system: Hey; test: as above; assay type: cell-based, human; settings: Day 7, 500 nM Aza then NextA, fold change relative to Mock
Experimental: as §1, §2

[4] = test system: Kuramochi; test: as above; assay type: cell-based, human; settings: Day 7, seven genes
Experimental: as §1, §2

[5] = test system: SKOV3 CR; test: as above; assay type: cell-based, human; settings: Day 7
Experimental: as §1, §2

[6] = test system: TykNu; test: as above; assay type: cell-based, human; settings: Day 7, seven genes
Experimental: as §1, §2

[7] = test system: MOSE ID8 Trp53−/−; test: as above; assay type: cell-based, mouse; settings: Day 7, 500 nM Aza then NextA, fold change relative to Mock
Experimental: as §1
Total RNA was extracted using the TRIzol method (Life Technologies). RNA concentration was determined using the Thermo Scientific NanoDrop One machine and software (Thermo Scientific, 840274100PR2). […] All RT-qPCRs were run on the Applied Biosystems Quantstudio3 Real-Time PCR System, 96-well plate reader (Applied Biosystems, A28137) and using TaqMan assay Gene Expression Array (Thermo Fisher Scientific, 4331182) in human for OASL, IFI44L, IFNb1, CXCL10, CCL2, CCL5, IFI27, CD247, DNMT1, DNMT3a, DNMT3b and in mouse (Thermo Fisher Scientific, 4331182) for OASL, IFI44L, IFNb1, CXCL10, CCL2, CCL5, IFI27, and CD247. […]

[8] = test system: DNMT1 protein; test: DNMT1 immunoblot in ovarian cancer cell lines; assay type: cell-based, human; settings: Day 7
Experimental: (§3) Cells were cultured in T75 dishes (Greiner, 658170) to form a monolayer at 80% confluency. Combination cells were treated with 500 nM 5-azacytidine (Sigma-Aldrich) once a day for 3 days or PBS once a day for 3 days. Cells were passaged on the fourth day and split into 2 flasks to be treated with Nexturastat (StarWise, LLC) or DMSO for vehicle control at the desired dose based on the cell line for the following 3 days. On the first day of Nexturastat treatment, one flask from each treatment group was stimulated with 250 ng/mL IFNγ (Peprotech, 300-02). For isogeneic ID8 murine cell lines, on the first day of HDACi treatment cell were treated with 250 ng/mL IFNγ (Peprotech, 315-05). On the seventh day, cell pellets were collected for Western Blot or flow cytometry analysis. For cycloheximide experiments, cells were treated on the seventh day of the experiment for 0, 4 or 8 hours with 10 μM cycloheximide (Sigma, C4859).
(§4) Isolated cell pellets were lysed in RIPA buffer (Pierce, 89900) with 1X protease and phosphatase inhibitor (Pierce, A32961). […] Protein concentration was determined using a Pierce BCA Protein Assay Kit (Thermo Fisher Scientific, 23225) according to the manufacturer’s protocol. […] Bands were detected using Azure Biosystems (Dublin, California, USA) Imaging System c600. […]

[9] = test system: tumor microenvironment immune cells; test: Immunophenotyping of ascites in ID8 Trp53−/− mouse model; assay type: in vivo; settings: first experiment, Week 7
Experimental: Ascites and murine spleens were collected from 5 to 10 mice per group and incubated in ACK buffer (Thermo Fisher Scientific) to lyse red blood cells for 10 min and then washed. Ascites from each mouse were individually prepared for flow cytometry. The single cells collected were cultured for 4 hours in RPMI with 10% FBS and in the presence of 2 ul/ml Cell Stimulation Cocktail plus protein transport inhibitors (eBioscience, 00497503). Cells were then washed and stained for the T cell panel including: Live/Dead (Thermo Fisher Scientific, L34965), CD45 (Biolegend, 103132), CD3 (Biolegend, 152316), CD4 (Biolegend, 100453), CD8 (Biolegend, 100766), NK1.1 (Biolegend, 108753) CD 279 (Biolegend, 135205). After incubation, the cells were permeabilized (FoxP3 staining buffers; BD Bioscience, 563486). Intracellular staining was performed for FoxP3 (Biolegend, 505806) and IFN-γ (BD Bioscience, 563486).
(§5) All cells were fixed after staining using Foxp3/Transcription Factor Staining Buffer Set (eBioscience, 00-5523-00) and run on a 3-laser, 12-color BD Celesta analyzer.

[10] = test system: ID8 Trp53−/− ovarian cancer; test: ID8 Trp53−/− mouse model of ovarian cancer, survival and tumor burden; settings: first experiment; for survival: i.p. Aza 0.5 mg/kg, NextA 25 mg/kg, 5 days a week, combination on alternating weeks, vs Mock
Experimental: For in vivo tumor studies, all mice were given intraperitoneal injections with 5.0 ×10^6 p53−/− isogeneic murine ovarian cancer cells suspended in 500 uL 1x phosphate buffered saline (PBS) (Corning 21-040-CV). Treatment began 1 week after tumor inoculation and ended when the tumor burden was deemed excessive for the animal. Mice were injected with 5-azacytidine and Nexturastat 5 days a week in alternating treatment (see treatment schemas in Figs. 5 and 6). All mice were given intraperitoneal injections of epigenetic drugs or their appropriate controls. Mice in the 5-azacytidine group were given 0.5 mg/kg of 5-azacytidine dissolved in 100 ul of PBS solution daily. Mice in the NexturastatA group were given 25 mg/kg of Nexturastat A dissolved in 100 ul PEG vehicle solution(70% Polyethylene glycol, 10% Tween80, 20% absolute ethanol) daily. Mice in the NextA+Aza group were given 5-azacytidine and NexturastatA on an alternating weekly basis. Mice in the control group were given a drug vehicle comprised of 70% Polyethylene glycol (Sigma 764752), 10% Tween 80 (Sigma P5188), and 20% 200 proof absolute ethanol as per the manufacturer guidelines as a vehicle control for Nexturastat or PBS as a vehicle control for 5-azacytidine.
Tumor burden was assessed via measurement of body weight, amount of ascites drained from the mice at the point where they had gained 20 to 30% of their body weight, or abdominal circumference measurements.

[11] = test system: HDAC activity; test: HDAC-Glo assay, percent inhibition of HDAC activity in ovarian cancer cell lines; assay type: cell-based, human
Experimental: HDACi enzymatic function was measured using HDACglo class I/IIa Assay (Promega, G6420). Cells were seeded in a 96-well dish and treated with 500 nM 5-azacytidine and varying levels of HDACi to determine appropriate HDACi dosage. Assay measurements were collected using SpectraMax i3x multi-mode microplate reader (Molecular Devices, USA) at the recommended wavelength. […], Givinostat, and Panobinostat (SelleckChem) were used to compare enzymatic inhibition levels of Nexturastat in each cell line. Results were analyzed according to manufacturer recommendations.

[12] = test system: ovarian cancer cell lines; test: CellTox Green cytotoxicity assay; assay type: cell-based, human; settings: NextA dose chosen for each cell line, 5–10 uM
Experimental: Drug toxicity levels were measured using the CellTox Assay (Promega, G8741). Cells were seeded into a 96-well dish and treated with 500 nm 5-azacytidine and varying levels of HDACi to determine suitable dosage. Cells were treated with fluorescent dye and incubated for 4 days measuring cell death according to the manufacturer’s protocol. For longer treatments, cells were seeded in a 96-well place and treated with 500 nm 5-azacytidine for 4 days and then varying levels of HDACi. Cells were treated with a fluorescent dye on the fourth day and incubated to measure cell death. Assay measurements were collected using SpectraMax i3x multi-mode microplate reader (Molecular Devices, USA) at the recommended wavelength. For our analysis, TritonX (Sigma, 9002-93-1) was used as the positive control compound to simulate cell death on all […] read days. Results were analyzed according to manufacture recommendations.

[13] = test system: MHC class I, Hey human ovarian cancer cell line; test: MHC class I cell surface expression by flow cytometry; assay type: cell-based; settings: Day 7, flow cytometry MFI
Experimental: as §3
(§6) Human ovarian cancer cells from day 7 of the protein protocol were stained for CD274 (eBioscience,12-5983-42) and MHC-I (eBioscience, 12-9983-42).
as §5

[14] = test system: MHC class I, ID8 Trp53−/− mouse ovarian cancer cell line; test: as above; assay type: cell-based; settings: Day 7, flow cytometry MFI
Experimental: as §3
Murine ovarian cancer cell lines from day 7 of the protein protocol were stained for PD-L1/CD274 (BD Bioscience, 558091), PD-L2/CD273 (Biolegend, 107214), MHC-I (Invitrogen, 17-5958-82), and MHC-II (Invitrogen 56-5321-82).
as §5

[15] = test system: MHC I, IGROV-1 CR and SKOV3 CR; test: MHC I surface expression in cisplatin-resistant cell lines; assay type: cell-based, human; settings: flow cytometry
Experimental: as §3, §6, §5

[16] = test system: PD-L1; test: PD-L1 whole-cell protein immunoblot; assay type: cell-based, human; settings: IGROV-1 CR and SKOV3 CR
Experimental: as §3, §4

[17] = test system: IGROV-1 CR; set-up: method as in PMID 29662190; settings: read-out: cisplatin IC50; cited from earlier work
[18] = test system: SKOV3 CR; set-up: method as in PMID 29662190; settings: read-out: cisplatin IC50; cited from earlier work
[19] = low doses (250–500 nM), positive controls

O=C(CCCCCCNC(=O)c1cnc(N(c2ccccc2)c2ccccc2)nc1)NO [ACY1215]
survival [1]: improved survival

Nc1ncn([C@@H]2O[C@H](CO)[C@@H](O)[C@H]2O)c(=O)n1 [Aza, 5-azacytidine]
expression of cytokines and interferon genes [2]: significantly increased | expression of cytokines and interferon genes [3]: significantly increased | expression of cytokines and interferon genes [4]: some upregulation | expression of cytokines and interferon genes [5]: upregulated CCL2 and OASL genes | expression of cytokines and interferon genes [6]: significant increases | expression of cytokines and interferon genes [7]: significantly increased | DNMT1 protein expression [8]: degrades the DNMT1 protein | M1 macrophages in ascites [9]: increase in M1 macrophages | ascites volume (tumor burden) ([10]; Week 7): decreased ascites volume | survival [10]: significantly increased survival

CCN(CC)Cc1ccc2cc(COC(=O)Nc3ccc(C(=O)NO)cc3)ccc2c1 [Givinostat]
inhibition of HDAC activity [11, 19]: 100%

Cc1[nH]c2ccccc2c1CCNCc1ccc(/C=C/C(=O)NO)cc1 [LBH]
inhibition of HDAC activity [11, 19]: 100%

CCCCN(Cc1ccc(C(=O)NO)cc1)C(=O)Nc1ccccc1 [NextA, Nexturastat A]
inhibition of HDAC activity ([11]; 5 and 10 uM): 60–80% | cell death [12]: no more than 20% | expression of cytokines and interferon genes [2]: significantly increased | expression of cytokines and interferon genes [3]: significantly increased | expression of cytokines and interferon genes [4]: some upregulation | expression of cytokines and interferon genes [5]: upregulated CCL2 and OASL genes | expression of cytokines and interferon genes [7]: significantly increased | MHC class I cell surface expression [13]: upregulated | MHC class I cell surface expression [14]: upregulated | MHC I expression [15]: increase in MHC I expression | total PD-L1 protein [16]: decrease of total PD-L1 protein | activated NK cells in ascites [9]: favoring the presence of activated NK cells | survival [10]: did not

CC(/C=C/C(=O)NO)=C\[C@@H](C)C(=O)c1ccc(N(C)C)cc1 [TSA]
inhibition of HDAC activity [11, 19]: 100%

N.N.[Cl][Pt][Cl] [cisplatin]
IC50 [17]: 1500 nM | IC50 [18]: 10.4 µM
